# According to PubChem BioAssay (NCI):
#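 A five-concentration, 48-hour dose response in 96-well plates underlies each endpoint, interpolated linearly between surrounding concentrations. The concentration for 50% growth inhibition is given as GI50. TGI is the concentration that stops growth completely.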
# System: T-47D breast
# Assay: inhibition of tumour cell growth, NCI panel, 48 h
Compound,TGI [µM],GI50 [µM]
O=c1[nH][nH]c(=O)n1Cc1ccccc1Cn1c(=O)[nH][nH]c1=O,> 100,
CCNC(=S)N/N=C/c1cc([N+](=O)[O-])ccc1O,> 100,
CCOC(=O)c1c2ccccc2n2c(N)c(C(N)=O)nnc12,> 100,
Cc1cc(N(CCC#N)CCC#N)ccc1/C(N=Nc1ccc(Cl)cc1)=N\NC(=O)c1ccccc1,88.3,
CC[C@@]1(O)C(=O)OCc2c1cc1n(c2=O)Cc2c-1nc1ccccc1c2/C=N\NC(=O)CN,> 20.3,
CCc1ccc(CCN2CCCCC2)nc1,> 100,
O=C(NNC(=O)c1ccccc1SSc1ccccc1C(=O)NNC(=O)c1ccccc1S)c1ccccc1S,> 27.8,
CCOC(=O)C(NC(C)=O)(Nc1ccc(F)cc1)C(F)(F)F (stereo not drawn),81.5,
O=C1/C(=C/c2ccc(O)cc2)CC/C1=C\c1ccc(O)cc1,> 100,
CC(C)C1/C(=N/O)CC(c2ccccc2)N(N=O)C1c1ccccc1 (stereo not drawn),96.2,
CC1(C)N=C(/C(Cl)=[N+](/[O-])C(=O)c2ccc(F)cc2)C(C)(C)N1O,58.5,
COC(=O)[C@H](Cc1c[nH]c2ccccc12)NP(=O)(O)OCC1C=CC(n2cc(C)c(=O)[nH]c2=O)O1 (stereo partly drawn),> 100,
COC(=O)[C@H]1CO[C@@H](C(C)(C)C)N1C(=O)N1C=CC(=O)C[C@@H]1C,> 100,
CCCNC1=C2CC(C)CC(OC)[C@@H](O)[C@H](C)/C=C(\C)C(OC(N)=O)C(OC)/C=C\C=C(/C)C(=O)NC(=CC1=O)C2=O (stereo partly drawn),35,1.15
Clc1ccc(/C=C/c2nc3ccccc3s2)cc1Cl,9.77,
CCC1(O)CC2CC(=O)OC2C1O (stereo not drawn),> 100,
Cc1ccc(SCC(CSCCO)OCn2cnc3c2NC(N)=NC32OCCO2)cc1 (stereo not drawn),> 100,
C(/c1ccco1)=c1/nc(-c2ccccc2)n2c1nc1ccccc12,> 100,
COC(=O)C1CCC(=O)N1C(c1ccccc1)c1ccc(OC)c(OC)c1 (stereo not drawn),> 100,
Oc1cccc2c(Cl)ccnc12,48.2,
Cc1cccc(/C=N/NC(=S)Nc2ccccc2)n1,> 29.2,
N#CC1=C(N)N(c2ccccc2)C(c2ccco2)C1(C#N)C#N (stereo not drawn),81,
NC(=O)C(c1ccccc1)N1OC2C(=O)N(c3ccccc3)C(=O)C2C1c1c2ccccc2c(Cl)c2ccccc12 (stereo not drawn),> 100,
CC(C)c1ccc(/C=C2/C=C(c3ccc4ccccc4c3)OC2=O)cc1,> 100,

Compound,TGI [µM],GI50 [µM]
COc1ccc(/C=C2\CCC(C)C3=C2NC(=S)NC3c2ccc(OC)c(OC)c2)cc1OC (stereo not drawn),> 27.4,
CC[C@@]1(C[C@H]2C[C@@]3(C(=O)OC)c4[nH]c5ccccc5c4CCN3C2=O)COC2(CCCCC2)O1,> 100,
COc1ccc2c(=O)c(O)c(-c3ccc(OC)c(OC)c3)oc2c1,> 100,
COc1ccc(C(OCC2OC(n3cc(C)c(=O)[nH]c3=O)CC2n2cc(Cn3cc(I)c(=O)[nH]c3=O)nn2)(c2ccccc2)c2ccccc2)cc1 (stereo not drawn),> 100,
O=S1(=O)NC(=NCc2c[nH]c3ccccc23)N(c2ccccc2)c2ccncc21,> 100,
COc1ccc(CNc2nc(NCc3ccc(OC)c(OC)c3)nc(NC3CCCCC3)n2)cc1,> 100,
C=C(C1=CC(=O)C(C)(C)O1)[C@@H]1CC=C([C@@H]2CC[C@H]3[C@@]2(C)CC[C@H]2C(C)(C)C(=O)[C@H](O)C[C@]32C)[C@H](O)O1,3.41,
CC1=CC2C(O1)C1C(=O)C=CC(=O)C1=CC2[N+](=O)[O-] (stereo not drawn),> 29.2,
C=C(Br)C(C)(Cl)CCC(Br)C(C)(C)Cl (stereo not drawn),> 100,
O=C(CCC(=O)c1ccc(Cl)cc1)NO,> 100,
COc1c(C)c(C/C=C(\C)CCCCO[Si](c2ccccc2)(c2ccccc2)C(C)(C)C)c(OC)c(OC)c1OC,> 100,
CN1CCN([C@H]2C[C@H]3[C@@H]4CC=C5C[C@@H](O)CC[C@]5(C)[C@H]4CC[C@]3(C)C2=O)CC1,> 100,
COc1ccc(C2c3cc4c(cc3OC(NNS(=O)(=O)c3ccc(C)cc3)C2C)OCO4)cc1 (stereo not drawn),> 100,
C[C@@]12C[C@@H](c3ccccc3O1)N1CCCCSC1=N2,> 100,
CCOC(=O)Nn1c(C)nnc1-c1ccccc1,> 100,
Cc1cn(C2CC(n3cc(Cn4cc(I)c(=O)[nH]c4=O)nn3)C(CO)O2)c(=O)[nH]c1=O (stereo not drawn),> 100,
CNC(=O)OCC1=C(COC(=O)NC)C(C)N(c2ccc(OC)cc2)C1 (stereo not drawn),> 100,
c1ccc(N=C2SC3=Nc4cccc5cccc(c45)N3C2=Nc2ccccc2)cc1,> 100,
Cc1cn(C2CC(N(O)C(N)=O)C(CO)O2)c(=O)[nH]c1=O (stereo not drawn),> 100,
O=C(O)c1cccc2c1/C(=N/Nc1ccccc1)CC2,> 100,
Nc1cccc2cc(Cl)cnc12,> 100,
CC1=C(C)[C@@]2(C)O[C@@]2(C)O[C@@]2(C)O[C@@]12C,> 100,
Cc1ccccc1-n1c(=O)c2ncn(CCCl)c2n(-c2ccccc2C)c1=S,> 100,

# System: RPMI-8226 leukemia
# Assay: inhibition of tumour cell growth, NCI panel, 48 h
Compound,TGI [µM],GI50 [µM]
O=c1[nH][nH]c(=O)n1Cc1ccccc1Cn1c(=O)[nH][nH]c1=O,> 100,
CCOC(=O)c1c2ccccc2n2c(N)c(C(N)=O)nnc12,> 100,
Cc1cc(N(CCC#N)CCC#N)ccc1/C(N=Nc1ccc(Cl)cc1)=N\NC(=O)c1ccccc1,> 100,
CC[C@@]1(O)C(=O)OCc2c1cc1n(c2=O)Cc2c-1nc1ccccc1c2/C=N\NC(=O)CN,18.8,
CCc1ccc(CCN2CCCCC2)nc1,> 100,
O=C(NNC(=O)c1ccccc1SSc1ccccc1C(=O)NNC(=O)c1ccccc1S)c1ccccc1S,> 100,
CCOC(=O)C(NC(C)=O)(Nc1ccc(F)cc1)C(F)(F)F (stereo not drawn),> 100,
O=C1/C(=C/c2ccc(O)cc2)CC/C1=C\c1ccc(O)cc1,> 100,
CC(C)C1/C(=N/O)CC(c2ccccc2)N(N=O)C1c1ccccc1 (stereo not drawn),> 100,
CC1(C)N=C(/C(Cl)=[N+](/[O-])C(=O)c2ccc(F)cc2)C(C)(C)N1O,38.1,
COC(=O)[C@H](Cc1c[nH]c2ccccc12)NP(=O)(O)OCC1C=CC(n2cc(C)c(=O)[nH]c2=O)O1 (stereo partly drawn),> 100,
COC(=O)[C@H]1CO[C@@H](C(C)(C)C)N1C(=O)N1C=CC(=O)C[C@@H]1C,> 100,
CCCNC1=C2CC(C)CC(OC)[C@@H](O)[C@H](C)/C=C(\C)C(OC(N)=O)C(OC)/C=C\C=C(/C)C(=O)NC(=CC1=O)C2=O (stereo partly drawn),42.2,0.463
Clc1ccc(/C=C/c2nc3ccccc3s2)cc1Cl,> 100,
CCC1(O)CC2CC(=O)OC2C1O (stereo not drawn),> 100,
Cc1ccc(SCC(CSCCO)OCn2cnc3c2NC(N)=NC32OCCO2)cc1 (stereo not drawn),> 100,
C(/c1ccco1)=c1/nc(-c2ccccc2)n2c1nc1ccccc12,44.4,
COC(=O)C1CCC(=O)N1C(c1ccccc1)c1ccc(OC)c(OC)c1 (stereo not drawn),> 100,
Cc1cccc(/C=N/NC(=S)Nc2ccccc2)n1,75.6,
N#CC1=C(N)N(c2ccccc2)C(c2ccco2)C1(C#N)C#N (stereo not drawn),45.5,
NC(=O)C(c1ccccc1)N1OC2C(=O)N(c3ccccc3)C(=O)C2C1c1c2ccccc2c(Cl)c2ccccc12 (stereo not drawn),> 100,

Compound,TGI [µM],GI50 [µM]
CC(C)c1ccc(/C=C2/C=C(c3ccc4ccccc4c3)OC2=O)cc1,93.7,
COc1ccc(/C=C2\CCC(C)C3=C2NC(=S)NC3c2ccc(OC)c(OC)c2)cc1OC (stereo not drawn),> 31.6,
COc1ccc2c(=O)c(O)c(-c3ccc(OC)c(OC)c3)oc2c1,> 100,
COc1ccc(C(OCC2OC(n3cc(C)c(=O)[nH]c3=O)CC2n2cc(Cn3cc(I)c(=O)[nH]c3=O)nn2)(c2ccccc2)c2ccccc2)cc1 (stereo not drawn),> 100,
CC1=CC2C(O1)C1C(=O)C=CC(=O)C1=CC2[N+](=O)[O-] (stereo not drawn),> 100,
O=C(CCC(=O)c1ccc(Cl)cc1)NO,> 100,
COc1c(C)c(C/C=C(\C)CCCCO[Si](c2ccccc2)(c2ccccc2)C(C)(C)C)c(OC)c(OC)c1OC,> 46.4,
CN1CCN([C@H]2C[C@H]3[C@@H]4CC=C5C[C@@H](O)CC[C@]5(C)[C@H]4CC[C@]3(C)C2=O)CC1,> 100,
COc1ccc(C2c3cc4c(cc3OC(NNS(=O)(=O)c3ccc(C)cc3)C2C)OCO4)cc1 (stereo not drawn),> 100,
C[C@@]12C[C@@H](c3ccccc3O1)N1CCCCSC1=N2,> 100,
CCOC(=O)Nn1c(C)nnc1-c1ccccc1,> 100,
Cc1cn(C2CC(n3cc(Cn4cc(I)c(=O)[nH]c4=O)nn3)C(CO)O2)c(=O)[nH]c1=O (stereo not drawn),> 100,
CNC(=O)OCC1=C(COC(=O)NC)C(C)N(c2ccc(OC)cc2)C1 (stereo not drawn),> 100,
c1ccc(N=C2SC3=Nc4cccc5cccc(c45)N3C2=Nc2ccccc2)cc1,> 100,
Cc1cc(O)c2c(=O)c3ccccc3[nH]c2c1,41,
Cc1cn(C2CC(N(O)C(N)=O)C(CO)O2)c(=O)[nH]c1=O (stereo not drawn),> 100,
O=C(O)c1cccc2c1/C(=N/Nc1ccccc1)CC2,> 100,
O=C(Cc1cccs1)N[C@@H]1C(=O)N2C(C(=O)OC(c3ccccc3)c3ccccc3)=C(CO)CS[C@H]12,> 100,
Nc1cccc2cc(Cl)cnc12,> 100,
Cc1ccccc1-n1c(=O)c2ncn(CCCl)c2n(-c2ccccc2C)c1=S,> 100,

# System: SW-620 colon
# Assay: inhibition of tumour cell growth, NCI panel, 48 h
row,Compound,TGI [µM]
1,O=c1[nH][nH]c(=O)n1Cc1ccccc1Cn1c(=O)[nH][nH]c1=O,> 100
2,CCNC(=S)N/N=C/c1cc([N+](=O)[O-])ccc1O,> 100
3,CCOC(=O)c1c2ccccc2n2c(N)c(C(N)=O)nnc12,> 100
